Assay results reported in patent EP0003353A1, “A pharmaceutical composition for oral administration for treating hypertension” (Merck & Co., Inc., priority 1978, dated 1979).

Tested on: spontaneously hypertensive (SH) rats
Assay: Mean arterial pressure of conscious SH rats, direct measurement by cannulation of the caudal artery
Format: in vivo
Settings: for Mean arterial pressure at hours after treatment 0: 0 h; for Mean arterial pressure at hours after treatment 1/2: 1/2 h; for Mean arterial pressure at hours after treatment 1: 1 h; for Mean arterial pressure at hours after treatment 2: 2 h; for Mean arterial pressure at hours after treatment 4: 4 h; for Mean arterial pressure at hours after treatment 8: 8 h; for Mean arterial pressure at hours after treatment 12: 12 h; for Mean arterial pressure at hours after treatment 18: 18 h; for Mean arterial pressure at hours after treatment 24: 24 h
Experimental: The test procedure used is substantially as follows: • The test animals used were conscious, male, SH rats weighing about 290 to about 340 grams. The arterial blood pressure was measured by a direct technique involving cannulation of the caudal artery. Initial blood pressure reading was recorded. The decarboxylase inhibitor was then administered intraperitoneally (i.p.) and about 5 minutes later the L-a-methyl-p-tyrosine was given [(i.p. or orally (p.o.)]. The blood pressure was then continuously recorded at 1/2 hour intervals for 24 hours. The effect on blood pressure of the decarboxylase inhibitor and the L-a-methyl-p-tyrosine alone was also obtained by this test method. The results of representative tests are in the following table: […]

[1] = Test No. 2, Carbidopa 25 mg/kg i.p.
[2] = Test No. 13, Carbidopa 25 mg/kg i.p.
[3] = Test No. 3, α-methyl-p-tyrosine 5 mg/kg i.p.
[4] = Test No. 4, α-methyl-p-tyrosine 20 mg/kg i.p.
[5] = Test No. 5, α-methyl-p-tyrosine 40 mg/kg i.p.
[6] = Test No. 6, α-methyl-p-tyrosine 80 mg/kg i.p.
[7] = Test No. 14, α-Methyl-p-tyrosine 80 mg/kg p.o.

## C[C@@](Cc1ccc(O)c(O)c1)(NN)C(=O)O [Carbidopa]
[1]
  Mean arterial pressure at hours after treatment 0: 167 mm Hg
  Mean arterial pressure at hours after treatment 1/2: 166 mm Hg
  Mean arterial pressure at hours after treatment 1: 164 mm Hg
  Mean arterial pressure at hours after treatment 2: 166 mm Hg
  Mean arterial pressure at hours after treatment 4: 158 mm Hg
  Mean arterial pressure at hours after treatment 8: 167 mm Hg
  Mean arterial pressure at hours after treatment 12: 172 mm Hg
  Mean arterial pressure at hours after treatment 18: 172 mm Hg
  Mean arterial pressure at hours after treatment 24: 162 mm Hg
[2]
  Mean arterial pressure at hours after treatment 0: 184 mm Hg
  Mean arterial pressure at hours after treatment 1/2: 184 mm Hg
  Mean arterial pressure at hours after treatment 1: 180 mm Hg
  Mean arterial pressure at hours after treatment 2: 178 mm Hg
  Mean arterial pressure at hours after treatment 4: 177 mm Hg
  Mean arterial pressure at hours after treatment 8: 184 mm Hg
  Mean arterial pressure at hours after treatment 12: 183 mm Hg
  Mean arterial pressure at hours after treatment 18: 185 mm Hg
  Mean arterial pressure at hours after treatment 24: 182 mm Hg

## C[C@](N)(Cc1ccc(O)cc1)C(=O)O [α-methyl-p-tyrosine, L-α-methyl-p-tyrosine]
[3]
  Mean arterial pressure at hours after treatment 0: 165 mm Hg
  Mean arterial pressure at hours after treatment 1/2: 155 mm Hg
  Mean arterial pressure at hours after treatment 1: 162 mm Hg
  Mean arterial pressure at hours after treatment 2: 160 mm Hg
  Mean arterial pressure at hours after treatment 4: 161 mm Hg
  Mean arterial pressure at hours after treatment 8: 167 mm Hg
  Mean arterial pressure at hours after treatment 12: 164 mm Hg
  Mean arterial pressure at hours after treatment 18: 168 mm Hg
  Mean arterial pressure at hours after treatment 24: 164 mm Hg
[4]
  Mean arterial pressure at hours after treatment 0: 165 mm Hg
  Mean arterial pressure at hours after treatment 1/2: 152 mm Hg
  Mean arterial pressure at hours after treatment 1: 159 mm Hg
  Mean arterial pressure at hours after treatment 2: 157 mm Hg
  Mean arterial pressure at hours after treatment 4: 146 mm Hg
  Mean arterial pressure at hours after treatment 8: 156 mm Hg
  Mean arterial pressure at hours after treatment 12: 155 mm Hg
  Mean arterial pressure at hours after treatment 18: 161 mm Hg
  Mean arterial pressure at hours after treatment 24: 166 mm Hg
[5]
  Mean arterial pressure at hours after treatment 0: 166 mm Hg
  Mean arterial pressure at hours after treatment 1/2: 148 mm Hg
  Mean arterial pressure at hours after treatment 1: 152 mm Hg
  Mean arterial pressure at hours after treatment 2: 145 mm Hg
  Mean arterial pressure at hours after treatment 4: 135 mm Hg
  Mean arterial pressure at hours after treatment 8: 140 mm Hg
  Mean arterial pressure at hours after treatment 12: 134 mm Hg
  Mean arterial pressure at hours after treatment 18: 130 mm Hg
  Mean arterial pressure at hours after treatment 24: 135 mm Hg
[6]
  Mean arterial pressure at hours after treatment 0: 167 mm Hg
  Mean arterial pressure at hours after treatment 1/2: 166 mm Hg
  Mean arterial pressure at hours after treatment 1: 158 mm Hg
  Mean arterial pressure at hours after treatment 2: 146 mm Hg
  Mean arterial pressure at hours after treatment 4: 138 mm Hg
  Mean arterial pressure at hours after treatment 8: 131 mm Hg
  Mean arterial pressure at hours after treatment 12: 130 mm Hg
  Mean arterial pressure at hours after treatment 18: 136 mm Hg
  Mean arterial pressure at hours after treatment 24: 130 mm Hg
[7]
  Mean arterial pressure at hours after treatment 0: 169 mm Hg
  Mean arterial pressure at hours after treatment 1/2: 165 mm Hg
  Mean arterial pressure at hours after treatment 1: 166 mm Hg
  Mean arterial pressure at hours after treatment 2: 161 mm Hg
  Mean arterial pressure at hours after treatment 4: 143 mm Hg
  Mean arterial pressure at hours after treatment 8: 147 mm Hg
  Mean arterial pressure at hours after treatment 12: 161 mm Hg
  Mean arterial pressure at hours after treatment 18: 165 mm Hg
  Mean arterial pressure at hours after treatment 24: 173 mm Hg
